A short description of data set [1]: solubility in simulated lung fluid. The data set is classed as physicochemical.
Data set [2] is described as follows: hygroscopicity. The data set is classed as physicochemical.

Regarding `CC(C)N1CCN(Cc2cnc(-c3cc(-c4cccc5[nH]ccc45)cc4[nH]ncc34)o2)CC1.O=C(O)c1ccccc1` [benzoate salt of Compound A, 2-(6-(1H-Indol-4-yl)-1H-indazol-4-yl)-5-((4-isopropylpiperazin-1-yl)methyl)oxazole benzoate], the “solubility in simulated lung fluid” value in data set [1] is recorded as “suitable”. In addition, the hygroscopicity entry in data set [2] is given as “suitable”.

(Values after patent US10266525B2, “Processes for preparing 2-(6-(1H-indol-4-yl)-1H-indazol-4-yl)-5-((4-isopropylpiperazin-1-yl)methyl)oxazole” (GlaxoSmithKline Intellectual Property Development Limited, priority 2015, dated 2019).)
